Measurements published in ChEMBL document CHEMBL2202954, “The effect of PLC-γ2 inhibitors on the growth of human tumour cells” (2012).

Test system: MOLT-4
Test: Cytotoxicity against human MOLT4 cells by SRB assay
Format: functional

Nc1c(C(=O)Nc2ccccc2)sc2nc3c(cc12)C(=O)CCC3
GI50: 0.52 µM | TGI: > 100 µM

Cc1cc(C)c(NC(=O)c2sc3nc4c(cc3c2N)C(=O)CCC4)c(C)c1
GI50: 3.6 µM | TGI: > 100 µM

Cc1ccccc1NC(=O)c1sc2nc3c(cc2c1N)C(=O)CCC3
GI50: 4.3 µM | TGI: > 100 µM

Cc1ccc(Cl)cc1NC(=O)c1sc2nc3c(cc2c1N)C(=O)CCC3
GI50: 3.5 µM | TGI: > 100 µM

Nc1c(C(=O)Nc2cccc(Cl)c2)sc2nc3c(cc12)C(=O)CCC3
GI50: 0.2 µM | TGI: > 100 µM

Nc1c(C(=O)Nc2ccccc2F)sc2nc3c(cc12)C(=O)CCC3
GI50: 1.8 µM | TGI: > 100 µM
